How the values were obtained:
Assay in all cases: Kinase panel, residual activity
Format in all cases: biochemical
Settings in all cases: read-out: Percent residual activity
KDR = KDR (Homo sapiens, UniProt P35968)
Method: (§1) In this panel of 124 kinases, 18 of the 19 kinases identified as having an active site cysteine were inhibited to some extent by hypothemycin at a concentration of 0.2 μM and/or 2 μM.

Fyn(h) = Fyn(h) (Homo sapiens, UniProt P06241)
Method: as §1

TrkA(h) = TrkA(h) (Homo sapiens, UniProt P04629)
TrkA(h), sequence (P04629 33-796): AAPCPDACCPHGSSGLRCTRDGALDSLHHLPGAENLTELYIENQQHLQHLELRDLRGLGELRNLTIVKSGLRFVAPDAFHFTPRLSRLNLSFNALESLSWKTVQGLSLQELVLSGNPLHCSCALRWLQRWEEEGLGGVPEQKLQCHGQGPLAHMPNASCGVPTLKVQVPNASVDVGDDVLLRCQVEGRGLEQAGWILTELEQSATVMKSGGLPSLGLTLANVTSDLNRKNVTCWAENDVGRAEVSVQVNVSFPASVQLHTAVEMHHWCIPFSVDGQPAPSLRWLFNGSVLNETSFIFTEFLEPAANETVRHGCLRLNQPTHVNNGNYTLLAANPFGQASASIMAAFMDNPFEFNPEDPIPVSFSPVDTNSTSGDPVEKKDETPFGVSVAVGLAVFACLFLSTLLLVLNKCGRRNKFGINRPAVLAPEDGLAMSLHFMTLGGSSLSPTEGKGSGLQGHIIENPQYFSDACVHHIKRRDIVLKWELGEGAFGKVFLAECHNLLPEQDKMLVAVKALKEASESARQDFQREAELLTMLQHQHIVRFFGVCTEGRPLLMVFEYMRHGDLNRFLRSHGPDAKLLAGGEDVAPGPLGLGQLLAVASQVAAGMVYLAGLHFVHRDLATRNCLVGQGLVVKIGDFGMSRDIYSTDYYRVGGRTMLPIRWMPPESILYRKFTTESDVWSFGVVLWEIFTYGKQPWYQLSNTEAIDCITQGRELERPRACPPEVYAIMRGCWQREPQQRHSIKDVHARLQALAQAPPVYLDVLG
Method: as §1

SAPK2a(h) = SAPK2a(h) (Homo sapiens, UniProt Q16539)
Method: as §1

PKCβII(h) = PKCβII(h) (Homo sapiens, UniProt P05771)
Method: as §1

Bmx(h) = Bmx(h) (Homo sapiens, UniProt P51813)
Method: as §1

cSRC(h) = cSRC(h) (Homo sapiens, UniProt P12931)
cSRC(h), sequence (P12931 whole entry): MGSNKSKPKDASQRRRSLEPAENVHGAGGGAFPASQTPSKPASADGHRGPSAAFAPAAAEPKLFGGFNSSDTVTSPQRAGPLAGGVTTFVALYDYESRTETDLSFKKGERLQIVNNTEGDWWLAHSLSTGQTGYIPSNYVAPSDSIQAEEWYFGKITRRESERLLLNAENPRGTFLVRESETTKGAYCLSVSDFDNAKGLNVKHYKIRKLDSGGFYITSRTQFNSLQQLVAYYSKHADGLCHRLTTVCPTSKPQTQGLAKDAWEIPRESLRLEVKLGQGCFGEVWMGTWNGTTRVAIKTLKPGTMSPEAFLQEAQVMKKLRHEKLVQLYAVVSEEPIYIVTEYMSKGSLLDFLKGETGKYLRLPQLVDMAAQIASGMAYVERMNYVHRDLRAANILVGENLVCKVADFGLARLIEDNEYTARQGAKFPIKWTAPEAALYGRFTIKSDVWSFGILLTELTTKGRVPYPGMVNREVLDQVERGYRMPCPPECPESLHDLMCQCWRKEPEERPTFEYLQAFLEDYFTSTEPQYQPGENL
Method: as §1

BTK(h) = BTK(h) (Homo sapiens, UniProt Q06187)
Method: as §1

MAPKAP-K3(h) = MAPKAP-K3(h) (Homo sapiens, UniProt Q16644)
Method: as §1

Tie2(h) = Tie2(h) (Homo sapiens, UniProt Q02763)
Method: as §1

cKit(h) = cKit(h) (Homo sapiens, UniProt P10721)
cKit(h), sequence (P10721 26-976): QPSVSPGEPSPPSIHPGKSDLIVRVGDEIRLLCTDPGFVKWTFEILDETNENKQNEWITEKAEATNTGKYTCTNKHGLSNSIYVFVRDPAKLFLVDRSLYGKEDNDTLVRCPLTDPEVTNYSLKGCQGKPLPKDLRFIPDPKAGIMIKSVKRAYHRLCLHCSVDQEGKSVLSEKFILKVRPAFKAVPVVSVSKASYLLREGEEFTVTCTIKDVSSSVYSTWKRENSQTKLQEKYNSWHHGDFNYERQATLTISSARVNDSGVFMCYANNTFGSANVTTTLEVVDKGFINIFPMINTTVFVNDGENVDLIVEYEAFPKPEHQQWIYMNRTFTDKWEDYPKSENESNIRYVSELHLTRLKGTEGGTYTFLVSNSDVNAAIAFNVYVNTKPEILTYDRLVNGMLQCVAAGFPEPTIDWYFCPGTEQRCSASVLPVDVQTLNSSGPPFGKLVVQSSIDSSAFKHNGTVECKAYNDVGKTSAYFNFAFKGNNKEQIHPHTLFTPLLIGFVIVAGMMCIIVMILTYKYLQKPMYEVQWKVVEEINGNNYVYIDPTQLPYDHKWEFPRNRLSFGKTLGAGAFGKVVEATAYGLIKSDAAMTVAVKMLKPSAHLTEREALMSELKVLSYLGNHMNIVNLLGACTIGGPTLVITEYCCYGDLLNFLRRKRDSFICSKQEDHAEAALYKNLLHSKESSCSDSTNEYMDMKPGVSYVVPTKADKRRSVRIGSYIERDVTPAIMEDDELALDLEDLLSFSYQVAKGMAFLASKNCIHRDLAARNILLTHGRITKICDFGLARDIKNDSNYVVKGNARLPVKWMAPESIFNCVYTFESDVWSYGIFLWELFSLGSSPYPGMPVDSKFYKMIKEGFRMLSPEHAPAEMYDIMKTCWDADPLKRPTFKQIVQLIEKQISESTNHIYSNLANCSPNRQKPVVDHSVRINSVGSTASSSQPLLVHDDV
Method: as §1

PKCη(h) = PKCη(h) (Homo sapiens, UniProt P24723)
Method: as §1

PKCβI(h) = PKCβI(h) (Homo sapiens, UniProt P05771)
Method: as §1

CK1δ(h) = CK1δ(h) (Homo sapiens, UniProt P48730)
Method: as §1

MKK7β(h) = MKK7β(h) (Homo sapiens, UniProt O14733)
MKK7β(h), sequence (O14733 whole entry): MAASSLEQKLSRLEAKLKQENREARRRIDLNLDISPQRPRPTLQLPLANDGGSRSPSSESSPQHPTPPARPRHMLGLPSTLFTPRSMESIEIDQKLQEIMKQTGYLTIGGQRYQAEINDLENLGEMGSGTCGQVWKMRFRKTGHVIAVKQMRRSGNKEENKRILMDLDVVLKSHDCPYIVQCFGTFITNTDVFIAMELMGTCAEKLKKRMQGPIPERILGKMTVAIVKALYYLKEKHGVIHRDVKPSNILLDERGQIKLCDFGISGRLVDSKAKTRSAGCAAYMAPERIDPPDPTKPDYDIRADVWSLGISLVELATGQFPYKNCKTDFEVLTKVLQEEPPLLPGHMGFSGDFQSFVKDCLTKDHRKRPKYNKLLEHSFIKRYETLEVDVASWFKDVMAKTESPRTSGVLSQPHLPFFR
Method: as §1

Rsk2(h) = Rsk2(h) (Homo sapiens, UniProt P51812)
Method: as §1

IRAK4(h) = IRAK4(h) (Homo sapiens, UniProt Q9NWZ3)
Method: as §1

CDK7/cyclinH/MAT1(h) = CDK7/cyclinH/MAT1(h) (Homo sapiens, UniProt P50613)
Method: as §1

PDGFRα(h) = PDGFRα(h) (Homo sapiens, UniProt P16234)
PDGFRα(h), sequence (P16234 24-1089): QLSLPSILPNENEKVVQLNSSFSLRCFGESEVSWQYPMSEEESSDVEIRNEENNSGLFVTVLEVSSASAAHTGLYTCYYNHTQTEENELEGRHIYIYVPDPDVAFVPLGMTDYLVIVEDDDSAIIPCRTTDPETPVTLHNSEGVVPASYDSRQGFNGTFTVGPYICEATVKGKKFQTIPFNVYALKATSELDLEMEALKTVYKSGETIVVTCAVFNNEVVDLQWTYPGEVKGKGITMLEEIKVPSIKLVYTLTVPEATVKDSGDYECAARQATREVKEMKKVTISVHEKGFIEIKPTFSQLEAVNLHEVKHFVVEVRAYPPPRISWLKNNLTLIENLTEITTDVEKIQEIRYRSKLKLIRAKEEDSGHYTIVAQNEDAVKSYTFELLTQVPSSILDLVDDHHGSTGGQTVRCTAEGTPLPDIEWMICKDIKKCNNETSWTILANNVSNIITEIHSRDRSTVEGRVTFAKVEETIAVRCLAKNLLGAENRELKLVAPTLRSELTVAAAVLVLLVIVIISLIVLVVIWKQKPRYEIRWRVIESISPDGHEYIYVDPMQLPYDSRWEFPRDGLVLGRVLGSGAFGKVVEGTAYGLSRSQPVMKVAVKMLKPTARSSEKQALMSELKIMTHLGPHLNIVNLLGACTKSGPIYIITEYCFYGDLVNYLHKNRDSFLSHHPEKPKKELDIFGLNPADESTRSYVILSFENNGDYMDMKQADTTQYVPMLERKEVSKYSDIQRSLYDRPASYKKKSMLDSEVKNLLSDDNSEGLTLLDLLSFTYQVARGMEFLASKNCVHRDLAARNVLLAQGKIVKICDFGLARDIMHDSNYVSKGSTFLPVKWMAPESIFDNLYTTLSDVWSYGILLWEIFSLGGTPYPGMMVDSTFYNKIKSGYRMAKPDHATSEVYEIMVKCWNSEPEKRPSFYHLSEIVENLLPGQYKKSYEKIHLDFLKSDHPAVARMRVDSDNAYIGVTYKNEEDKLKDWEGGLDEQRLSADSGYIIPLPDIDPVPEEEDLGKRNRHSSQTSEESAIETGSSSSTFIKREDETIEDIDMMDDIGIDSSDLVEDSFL
Method: as §1

SAPK3(h) = SAPK3(h) (Homo sapiens, UniProt P53778)
Method: as §1

IGF-1R(h) = IGF-1R(h) (Homo sapiens, UniProt P08069)
Method: as §1

CHK2(h) = CHK2(h) (Homo sapiens, UniProt O96017)
Method: as §1

SGK(h) = SGK(h) (Homo sapiens, UniProt O00141)
Method: as §1

PKD2(h) = PKD2(h) (Homo sapiens, UniProt Q9BZL6)
PKD2(h), sequence (Q9BZL6 whole entry): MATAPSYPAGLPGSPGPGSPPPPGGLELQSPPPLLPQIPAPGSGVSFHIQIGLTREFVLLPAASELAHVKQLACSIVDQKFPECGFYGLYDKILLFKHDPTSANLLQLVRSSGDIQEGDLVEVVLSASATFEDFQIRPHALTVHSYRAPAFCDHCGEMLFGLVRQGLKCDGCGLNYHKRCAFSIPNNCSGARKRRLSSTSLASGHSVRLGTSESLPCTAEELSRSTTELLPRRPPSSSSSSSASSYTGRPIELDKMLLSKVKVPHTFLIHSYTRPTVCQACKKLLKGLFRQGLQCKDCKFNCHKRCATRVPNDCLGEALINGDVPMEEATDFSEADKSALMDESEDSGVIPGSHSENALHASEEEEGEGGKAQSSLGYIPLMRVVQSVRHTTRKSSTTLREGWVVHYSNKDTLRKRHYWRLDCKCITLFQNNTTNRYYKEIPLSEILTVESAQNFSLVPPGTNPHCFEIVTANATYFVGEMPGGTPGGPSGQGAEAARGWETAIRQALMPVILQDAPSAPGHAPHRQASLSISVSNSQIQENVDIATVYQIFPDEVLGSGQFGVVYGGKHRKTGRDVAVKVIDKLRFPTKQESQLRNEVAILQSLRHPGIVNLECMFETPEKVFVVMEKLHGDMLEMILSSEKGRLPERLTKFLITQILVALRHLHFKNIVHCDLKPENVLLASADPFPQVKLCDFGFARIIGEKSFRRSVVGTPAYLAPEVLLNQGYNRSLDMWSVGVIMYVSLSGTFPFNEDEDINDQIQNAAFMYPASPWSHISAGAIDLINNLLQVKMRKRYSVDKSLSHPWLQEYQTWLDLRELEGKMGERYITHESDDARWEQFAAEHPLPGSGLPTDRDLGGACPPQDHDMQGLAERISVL
Method: as §1

FGFR3(h) = FGFR3(h) (Homo sapiens, UniProt P22607)
Method: as §1

PKCζ(h) = PKCζ(h) (Homo sapiens, UniProt Q05513)
Method: as §1

PKCε(h) = PKCε(h) (Homo sapiens, UniProt Q02156)
Method: as §1

PAK2(h) = PAK2(h) (Homo sapiens, UniProt Q13177)
Method: as §1

SAPK2b(h) = SAPK2b(h) (Homo sapiens, UniProt Q15759)
Method: as §1

MAPKAP-K2(h) = MAPKAP-K2(h) (Homo sapiens, UniProt P49137)
Method: as §1

PKCδ(h) = PKCδ(h) (Homo sapiens, UniProt Q05655)
Method: as §1

JNK2α2(h) = JNK2α2(h) (Homo sapiens, UniProt P45984)
Method: as §1

PKCι(h) = PKCι(h) (Homo sapiens, UniProt P41743)
Method: as §1

FGFR4(h) = FGFR4(h) (Homo sapiens, UniProt P22455)
Method: as §1

Ros(h) = Ros(h) (Homo sapiens, UniProt P08922)
Method: as §1

GSK3β(h) = GSK3β(h) (Homo sapiens, UniProt P49841)
GSK3β(h), sequence (P49841 whole entry): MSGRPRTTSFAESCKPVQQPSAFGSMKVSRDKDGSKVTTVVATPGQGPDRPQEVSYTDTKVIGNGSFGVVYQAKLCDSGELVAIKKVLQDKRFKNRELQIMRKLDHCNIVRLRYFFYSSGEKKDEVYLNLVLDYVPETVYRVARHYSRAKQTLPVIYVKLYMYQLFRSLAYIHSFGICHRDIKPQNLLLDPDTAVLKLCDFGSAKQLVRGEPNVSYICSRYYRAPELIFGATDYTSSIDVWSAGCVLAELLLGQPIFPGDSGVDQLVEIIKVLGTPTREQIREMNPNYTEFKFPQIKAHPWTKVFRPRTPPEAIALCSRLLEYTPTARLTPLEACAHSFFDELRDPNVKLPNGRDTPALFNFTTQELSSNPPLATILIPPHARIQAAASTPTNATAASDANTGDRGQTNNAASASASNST
Method: as §1

CDK1/cyclinB(h) = CDK1/cyclinB(h) (Homo sapiens, UniProt P06493)
Method: as §1

IR(h) = IR(h) (Homo sapiens, UniProt P06213)
Method: as §1

Molecule `COc1cc(O)c2c(c1)[C@H]1O[C@@H]1C[C@H](O)[C@H](O)C(=O)/C=C\C[C@H](C)OC2=O` [Hypothemycin, hypothemycin] has a remaining activity at 2 µM (KDR) of 15%, a remaining activity at 0.2 µM (Fyn(h)) of 87% and a remaining activity at 0.2 µM (TrkA(h); 0.2 μM) of 22%. For the same molecule, the remaining activity at 2 µM (TrkA(h); 2.0 μM) was 1%, the remaining activity at 0.2 µM (SAPK2a(h)) was 107% and the remaining activity at 0.2 µM (PKCβII(h)) was 97%. It also gave a remaining activity at 0.2 µM (Bmx(h)) of 99%, a remaining activity at 0.2 µM (cSRC(h); 0.2 μM) of 75% and a remaining activity at 2 µM (cSRC(h); 2.0 μM) of 49%. It also gave a remaining activity at 0.2 µM (BTK(h)) of 104%, a remaining activity at 0.2 µM (MAPKAP-K3(h)) of 98% and a remaining activity at 0.2 µM (Tie2(h)) of 93%. It also gave a remaining activity at 0.2 µM (cKit(h); 0.2 μM) of 93%, a remaining activity at 2 µM (cKit(h); 2.0 μM) of 21% and a remaining activity at 0.2 µM (PKCη(h)) of 97%. For the same molecule, the remaining activity at 0.2 µM (PKCβI(h)) was 99%, the remaining activity at 0.2 µM (CK1δ(h)) was 105% and the remaining activity at 0.2 µM (MKK7β(h); 0.2 μM) was 85%. The remaining activity at 2 µM (MKK7β(h); 2.0 μM) was 41%, the remaining activity at 0.2 µM (Rsk2(h)) was 91% and the remaining activity at 0.2 µM (IRAK4(h)) was 84%. The remaining activity at 0.2 µM (CDK7/cyclinH/MAT1(h)) was 101%, the remaining activity at 0.2 µM (PDGFRα(h); 0.2 μM) was 77% and the remaining activity at 2 µM (PDGFRα(h); 2.0 μM) was 20%. It also gave a remaining activity at 0.2 µM (SAPK3(h)) of 104%, a remaining activity at 0.2 µM (IGF-1R(h)) of 107% and a remaining activity at 0.2 µM (CHK2(h)) of 97%. The remaining activity at 0.2 µM (SGK(h)) was 99%, the remaining activity at 0.2 µM (PKD2(h); 0.2 μM) was 31% and the remaining activity at 2 µM (PKD2(h); 2.0 μM) was -2%. It also gave a remaining activity at 0.2 µM (FGFR3(h)) of 102%, a remaining activity at 0.2 µM (PKCζ(h)) of 94% and a remaining activity at 0.2 µM (PKCε(h)) of 106%. The remaining activity at 0.2 µM (PAK2(h)) was 104%, the remaining activity at 0.2 µM (SAPK2b(h)) was 104% and the remaining activity at 0.2 µM (MAPKAP-K2(h)) was 98%. For the same molecule, the remaining activity at 0.2 µM (PKCδ(h)) was 96%, the remaining activity at 0.2 µM (JNK2α2(h)) was 93% and the remaining activity at 0.2 µM (PKCι(h)) was 108%. It also gave a remaining activity at 0.2 µM (FGFR4(h)) of 87%, a remaining activity at 0.2 µM (Ros(h)) of 97% and a remaining activity at 0.2 µM (GSK3β(h); 0.2 μM) of 90%. The remaining activity at 2 µM (GSK3β(h); 2.0 μM) was 40%, the remaining activity at 0.2 µM (CDK1/cyclinB(h)) was 89% and the remaining activity at 0.2 µM (IR(h)) was 100%.
